Assay results: PubChem BioAssay (NCI)
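Where inhibition never reached the appropriate level, the endpoint shown equals the highest concentration tested. Otherwise, values were interpolated linearly from a five-concentration, 48-hour dose response in 96-well plates. The concentration for full growth arrest is given as TGI.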

Legend:
Experiment in all cases: NCI anticancer screen, dose series, 48 h
[1] = system: OVCAR-3 ovarian
[2] = system: DMS 273 small cell lung
[3] = system: LOX IMVI melanoma
[4] = system: EKVX NSCLC
[5] = system: HCT-116 colon
[6] = system: OVCAR-8 ovarian
[7] = system: MALME-3M melanoma
[8] = system: UACC-257 melanoma
[9] = system: HOP-62 NSCLC
[10] = system: A549 NSCLC
[11] = system: MOLT-4 leukemia
[12] = system: SN12C renal
[13] = system: DMS 114 small cell lung
[14] = system: NCI-H226 lung
[15] = system: HOP-92 NSCLC
[16] = system: SK-MEL-28 melanoma
[17] = system: TK-10 renal
[18] = system: NCI-H460 lung
[19] = system: RXF-631 renal
[20] = system: A498 renal
[21] = system: M14 melanoma
[22] = system: HT29 colon
[23] = system: SF-295 CNS
[24] = system: CAKI-1 renal
[25] = system: SNB-75 CNS
[26] = system: SNB-19 CNS
[27] = system: IGROV1 ovarian
[28] = system: RPMI-8226 leukemia
[29] = system: U251 CNS
[30] = system: XF 498 CNS
[31] = system: DLD-1 colon
[32] = system: 786-0 renal
[33] = system: RXF 393 renal
[34] = system: KM12 colon
[35] = system: LXFL 529 NSCLC
[36] = system: OVCAR-4 ovarian
[37] = system: SF-268 CNS
[38] = system: SW-620 colon
[39] = system: UO-31 renal
[40] = system: HCC-2998 colon
[41] = system: SF-539 CNS
[42] = system: UACC-62 melanoma
[43] = system: SK-OV-3 ovarian
[44] = system: SK-MEL-5 melanoma
[45] = system: HCT-15 colon
[46] = system: M19-MEL melanoma
[47] = system: OVCAR-5 ovarian
[48] = system: SR leukemia
[49] = system: ACHN renal
[50] = system: SNB-78 CNS
[51] = system: KM20L2 colon
[52] = system: COLO 205 colon
[53] = system: HL-60(TB) leukemia
[54] = system: K-562 leukemia
[55] = system: SK-MEL-2 melanoma
[56] = system: HOP-18 NSCLC
[57] = system: CCRF-CEM leukemia
[58] = system: NCI-H522 lung

SMILES: Cn1cnc([N+](=O)[O-])c1Sc1nc2cccnc2s1
- TGI [1]: 28.1 µM
- TGI [2]: 57.4 µM
- TGI [3]: 60.5 µM
- TGI [4]: 33.8 µM
- TGI [5]: 29.5 µM
- TGI [6]: 90.1 µM
- TGI [7]: 22 µM
- TGI [8]: 27.9 µM
- TGI [9]: > 100 µM
- TGI [10]: > 100 µM
- TGI [11]: 23.6 µM
- TGI [12]: 33.5 µM
- TGI [13]: 28.5 µM
- TGI [14]: 36.5 µM
- TGI [15]: 33.9 µM
- TGI [16]: 30.8 µM
- TGI [17]: 30.3 µM
- TGI [18]: > 100 µM
- TGI [19]: 28.4 µM
- TGI [20]: > 100 µM
- TGI [21]: 26.8 µM
- TGI [22]: 63.7 µM
- TGI [23]: > 100 µM
- TGI [24]: 21 µM
- TGI [25]: 65.8 µM
- TGI [26]: > 100 µM
- TGI [27]: 33 µM
- TGI [28]: 60.4 µM
- TGI [29]: 65.8 µM
- TGI [30]: 39.2 µM
- TGI [31]: 26.7 µM
- TGI [32]: 28.1 µM
- TGI [33]: 32.9 µM
- TGI [34]: > 100 µM
- TGI [35]: 25 µM
- TGI [36]: 25.2 µM
- TGI [37]: 69.1 µM
- TGI [38]: 26.6 µM
- TGI [39]: 34.1 µM
- TGI [40]: 30.9 µM
- TGI [41]: 42 µM
- TGI [42]: 32 µM
- TGI [43]: > 100 µM
- TGI [44]: 35.7 µM
- TGI [45]: 24.8 µM
- TGI [46]: 29.6 µM
- TGI [47]: > 100 µM
- TGI [48]: 37.1 µM
- TGI [49]: 80.6 µM
- TGI [50]: > 100 µM
- TGI [51]: 31.7 µM
- TGI [52]: 22.7 µM

SMILES: CC1C=CC(C)C2(O)C(=O)NC(O)C12 (stereo not drawn)
- TGI [2]: > 100 µM
- TGI [4]: > 100 µM
- TGI [53]: > 100 µM
- TGI [5]: > 100 µM
- TGI [6]: > 100 µM
- TGI [7]: > 100 µM
- TGI [8]: > 100 µM
- TGI [9]: > 100 µM
- TGI [10]: > 100 µM
- TGI [11]: > 100 µM
- TGI [54]: > 100 µM
- TGI [55]: > 100 µM
- TGI [56]: > 100 µM
- TGI [12]: > 100 µM
- TGI [13]: > 100 µM
- TGI [14]: > 100 µM
- TGI [16]: > 100 µM
- TGI [17]: > 100 µM
- TGI [18]: > 100 µM
- TGI [19]: > 100 µM
- TGI [20]: > 100 µM
- TGI [21]: > 100 µM
- TGI [24]: > 100 µM
- TGI [25]: > 100 µM
- TGI [26]: > 100 µM
- TGI [27]: > 100 µM
- TGI [28]: > 100 µM
- TGI [29]: > 100 µM
- TGI [31]: > 100 µM
- TGI [32]: > 100 µM
- TGI [33]: > 100 µM
- TGI [34]: > 100 µM
- TGI [35]: > 100 µM
- TGI [36]: > 100 µM
- TGI [37]: > 100 µM
- TGI [38]: > 100 µM
- TGI [39]: > 100 µM
- TGI [40]: > 100 µM
- TGI [41]: > 100 µM
- TGI [42]: > 100 µM
- TGI [43]: > 100 µM
- TGI [57]: > 100 µM
- TGI [44]: > 100 µM
- TGI [45]: > 100 µM
- TGI [46]: > 100 µM
- TGI [48]: > 100 µM
- TGI [49]: > 100 µM
- TGI [50]: > 100 µM
- TGI [58]: > 100 µM
- TGI [51]: > 100 µM
- TGI [52]: > 100 µM
